Measured values as given in PMC10688034 (ACS Omega, 2023).

Experiments:
Calu-3 cells = conditions: MTT
SARS-CoV-2 [1] = assay type: cell-based
[2] = cited from earlier work
SARS-CoV-2 [3] = assay type: cell-based; conditions: Calu-3, independently of the time of administration
in vitro = conditions: African green monkey
Vero E6 cells = conditions: MTT, within the concentration range tested (1-80 μM)

| SMILES | cytotoxicity (in words) (Calu-3 cells; concentration up to 20 μM) | cell viability at the higher concentrations tested (in words) (Calu-3 cells; concentrations above 20 μM) | LR (reduction of viral load) (SARS-CoV-2 [1]) [log] | decomposition in cell culture medium after 6 h [2] | effect on viral replication (in words) (SARS-CoV-2 [3]) | IC50 (in vitro) [µM] | cytotoxicity (in words) (Vero E6 cells) |
| --- | --- | --- | --- | --- | --- | --- | --- |
| C[C@H]1[C@@H](O)O[C@@H]2O[C@@]3(C)CC[C@H]4[C@H](C)CC[C@@H]1[C@@]24OO3 [DHA, dihydroartemisinin] | noncytotoxic | slightly altering cell viability | < 1 | up to 70% | slightly interfere with viral replication | 21.6 |  |
| C[C@H](CCC(=O)O)[C@H]1CC[C@H]2[C@@H]3[C@@H](O)C[C@@H]4C[C@H](O)CC[C@]4(C)[C@H]3CC[C@]12C [UDCA, ursodeoxycholic acid] |  |  | < 1 |  |  |  | noncytotoxic |
